Results: PubChem BioAssay (NCI)
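Briefly, cells in 96-well plates were exposed to five compound concentrations for 48 h, and endpoints were estimated by linear interpolation. GI50 is the concentration that inhibits growth by half. TGI: concentration producing complete growth inhibition.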

Columns and labels:
Assay in all cases: inhibition of tumour cell growth, NCI panel, 48 h
A549 NSCLC = system: A549 NSCLC
OVCAR-4 ovarian = system: OVCAR-4 ovarian
NCI-H522 lung = system: NCI-H522 lung
CAKI-1 renal = system: CAKI-1 renal
COLO 205 colon = system: COLO 205 colon
SNB-75 CNS = system: SNB-75 CNS
SK-MEL-2 melanoma = system: SK-MEL-2 melanoma
KM12 colon = system: KM12 colon
HS 578T breast = system: HS 578T breast
BT-549 breast = system: BT-549 breast

`Cc1cccc(C)c1NC(=O)CCc1nc(=S)[nH][nH]1` was tested, and the TGI (A549 NSCLC) was > 100 µM, the TGI (OVCAR-4 ovarian) was > 100 µM and the TGI (NCI-H522 lung) was > 100 µM. The TGI (CAKI-1 renal) was > 100 µM, the TGI (COLO 205 colon) was > 100 µM and the TGI (SNB-75 CNS) was > 100 µM. The TGI (SK-MEL-2 melanoma) was > 100 µM.
With `CC(C)OP(=O)(OC(C)C)/C(N)=N/Nc1ccc([N+](=O)[O-])cc1` the TGI (A549 NSCLC) was > 100 µM, the TGI (OVCAR-4 ovarian) was > 100 µM and the TGI (NCI-H522 lung) was > 100 µM. For the same compound, the TGI (CAKI-1 renal) was > 100 µM, the TGI (KM12 colon) was > 100 µM and the TGI (COLO 205 colon) was > 100 µM. For the same compound, the TGI (SNB-75 CNS) was > 100 µM and the TGI (SK-MEL-2 melanoma) was > 100 µM.
For `Cc1ccc(S(=O)(=O)c2ccccc2[N+](=O)[O-])cc1`, the TGI (A549 NSCLC) was > 100 µM, the TGI (OVCAR-4 ovarian) was > 100 µM and the TGI (CAKI-1 renal) was > 100 µM. The TGI (KM12 colon) was > 100 µM, the TGI (SNB-75 CNS) was > 100 µM and the TGI (SK-MEL-2 melanoma) was > 100 µM.
With `Cc1cc(N(CCC#N)CCC#N)ccc1N=Nc1ccc(Br)cc1` the TGI (A549 NSCLC) was > 45.9 µM, the TGI (OVCAR-4 ovarian) was > 100 µM and the TGI (NCI-H522 lung) was 59.8 µM. For the same compound, the TGI (CAKI-1 renal) was > 51.4 µM, the TGI (KM12 colon) was > 100 µM and the TGI (COLO 205 colon) was > 100 µM. It also gave a TGI (SK-MEL-2 melanoma) of 48.9 µM.
With `N/N=C1\C(=O)N(c2ccc(Cl)cc2Cl)C(=O)C(=O)C1c1nc2ccccc2o1` (stereo not given) the TGI (A549 NSCLC) was > 100 µM, the TGI (OVCAR-4 ovarian) was > 100 µM and the TGI (NCI-H522 lung) was > 100 µM. The TGI (CAKI-1 renal) was > 100 µM, the TGI (KM12 colon) was > 100 µM and the TGI (COLO 205 colon) was > 100 µM. For the same compound, the TGI (SNB-75 CNS) was > 100 µM and the TGI (SK-MEL-2 melanoma) was > 100 µM.
`C[Si](C)(C)/C=C\CCO` was tested, and the TGI (A549 NSCLC) was > 100 µM, the TGI (NCI-H522 lung) was > 100 µM and the TGI (KM12 colon) was > 100 µM. The TGI (COLO 205 colon) was > 100 µM, the TGI (SNB-75 CNS) was > 100 µM and the TGI (SK-MEL-2 melanoma) was > 100 µM.
With `COc1ccc(CCc2cc(OC)cc(OC)c2)cc1` the TGI (A549 NSCLC) was > 100 µM, the TGI (OVCAR-4 ovarian) was > 100 µM and the TGI (NCI-H522 lung) was > 41 µM. The TGI (CAKI-1 renal) was > 100 µM, the TGI (KM12 colon) was > 100 µM and the TGI (COLO 205 colon) was > 60.5 µM. For the same compound, the TGI (SNB-75 CNS) was > 81.3 µM and the TGI (SK-MEL-2 melanoma) was > 62 µM.
With `c1ccc2c(c1)oc1ccc3nsnc3c12` the TGI (A549 NSCLC) was > 100 µM, the TGI (OVCAR-4 ovarian) was > 100 µM and the TGI (NCI-H522 lung) was > 100 µM. For the same compound, the TGI (CAKI-1 renal) was > 100 µM, the TGI (KM12 colon) was > 100 µM and the TGI (COLO 205 colon) was > 100 µM. For the same compound, the TGI (SNB-75 CNS) was > 100 µM and the TGI (SK-MEL-2 melanoma) was > 100 µM.
With `CC(=O)OCC(=O)[C@@]12OC(C)(C)O[C@@H]1C[C@H]1[C@@H]3CC(C=O)=C4C=C(OCCCl)CC[C@]4(C)[C@@]3(F)[C@@H](O)C[C@@]12C` the TGI (A549 NSCLC) was > 100 µM, the TGI (OVCAR-4 ovarian) was > 100 µM and the TGI (NCI-H522 lung) was 92 µM. The TGI (KM12 colon) was > 100 µM, the TGI (COLO 205 colon) was 34.9 µM and the TGI (SK-MEL-2 melanoma) was 58.6 µM.
With `CC(=O)[O-].[Mn+3].[O-]c1ccccc1C=NCCNCCN=Cc1ccccc1[O-]` the GI50 (A549 NSCLC) was > 100 µM, the TGI (A549 NSCLC) was > 100 µM and the GI50 (OVCAR-4 ovarian) was > 100 µM. The TGI (OVCAR-4 ovarian) was > 100 µM, the GI50 (NCI-H522 lung) was 66 µM and the TGI (NCI-H522 lung) was > 100 µM. For the same compound, the GI50 (KM12 colon) was > 100 µM, the TGI (KM12 colon) was > 100 µM and the GI50 (SNB-75 CNS) was > 100 µM. For the same compound, the TGI (SNB-75 CNS) was > 100 µM, the GI50 (SK-MEL-2 melanoma) was > 100 µM and the TGI (SK-MEL-2 melanoma) was > 100 µM.
For `Cc1c(NC(=S)NC(=O)c2ccc([N+](=O)[O-])cc2)c(=O)n(-c2ccccc2)n1C`, the TGI (A549 NSCLC) was > 100 µM, the TGI (OVCAR-4 ovarian) was > 100 µM and the TGI (NCI-H522 lung) was > 100 µM. The TGI (CAKI-1 renal) was > 100 µM, the TGI (KM12 colon) was > 100 µM and the TGI (COLO 205 colon) was > 100 µM. The TGI (SNB-75 CNS) was > 100 µM and the TGI (SK-MEL-2 melanoma) was > 100 µM.
Work on `CCOC(=O)CCn1ncc(Cl)c(Cl)c1=O` yielded a TGI (A549 NSCLC) of 32.9 µM, a TGI (OVCAR-4 ovarian) of 2.9 µM and a TGI (NCI-H522 lung) of 0.834 µM. The TGI (CAKI-1 renal) was 10.8 µM, the TGI (KM12 colon) was 20 µM and the TGI (COLO 205 colon) was 25.6 µM. It also gave a TGI (SNB-75 CNS) of 29.6 µM and a TGI (SK-MEL-2 melanoma) of 26.4 µM.
`CC1=NN(C(=O)c2ccc(Cl)cc2)C(=O)/C1=C/c1ccccc1O` was tested, and the TGI (A549 NSCLC) was > 100 µM, the TGI (OVCAR-4 ovarian) was > 100 µM and the TGI (NCI-H522 lung) was > 100 µM. The TGI (CAKI-1 renal) was > 100 µM, the TGI (KM12 colon) was > 100 µM and the TGI (COLO 205 colon) was > 100 µM. For the same compound, the TGI (SK-MEL-2 melanoma) was > 100 µM.
In the case of `COc1ncnc(S(=O)(=O)c2ccc(N=C3C(=O)N(CN4CCN(c5cc6c(cc5F)c(=O)c(C(=O)O)cn6C5CC5)CC4)c4ccc(Cl)cc43)cc2)c1OC`, the GI50 (A549 NSCLC) is reported as > 50 µM, the TGI (A549 NSCLC) is reported as > 50 µM and the GI50 (NCI-H522 lung) is reported as > 50 µM. The TGI (NCI-H522 lung) was > 50 µM, the GI50 (CAKI-1 renal) was 12.7 µM and the TGI (CAKI-1 renal) was > 50 µM. The GI50 (KM12 colon) was 24.2 µM, the TGI (KM12 colon) was > 50 µM and the GI50 (COLO 205 colon) was > 50 µM. The TGI (COLO 205 colon) was > 50 µM, the GI50 (HS 578T breast) was 6.16 µM and the TGI (HS 578T breast) was > 50 µM. The GI50 (SK-MEL-2 melanoma) was > 50 µM and the TGI (SK-MEL-2 melanoma) was > 50 µM.
In the case of `C[C@]12CC[C@H](O)CC1=CC[C@@H]1C2CC[C@]2(C)Nc3c(cnn3-c3ccccc3)CC12` (stereo not given in full), the TGI (A549 NSCLC) is reported as 37 µM, the TGI (OVCAR-4 ovarian) is reported as 36.6 µM and the TGI (CAKI-1 renal) is reported as 24.8 µM. The TGI (KM12 colon) was 5.13 µM, the TGI (SNB-75 CNS) was 9.12 µM and the TGI (SK-MEL-2 melanoma) was 48.2 µM.
`O=C1/C(=C/c2ccccc2)CN(C(=O)CCN2CCCC2)C/C1=C\c1ccccc1` showed a TGI (A549 NSCLC) of 14.6 µM, a TGI (OVCAR-4 ovarian) of 4.78 µM and a TGI (NCI-H522 lung) of 2.8 µM. It also gave a TGI (CAKI-1 renal) of 14.8 µM, a TGI (KM12 colon) of 1.82 µM and a TGI (COLO 205 colon) of 3.25 µM. It also gave a TGI (BT-549 breast) of 3.77 µM, a TGI (SNB-75 CNS) of 13.5 µM and a TGI (SK-MEL-2 melanoma) of 8.41 µM.
For `Cn1c(-c2ccc(/C=N/NC(=S)N/N=C/c3ccc(-c4c[n+]5ccsc5n4C)cc3)cc2)c[n+]2ccsc12`, the TGI (A549 NSCLC) was > 100 µM, the TGI (OVCAR-4 ovarian) was > 100 µM and the TGI (NCI-H522 lung) was > 100 µM. The TGI (KM12 colon) was > 100 µM, the TGI (COLO 205 colon) was > 100 µM and the TGI (SNB-75 CNS) was > 100 µM. For the same compound, the TGI (HS 578T breast) was > 100 µM.
With `COC(=O)c1c2c(cc3c1CC1(Cc4cc5c(c(C(C)=O)c4C1)CCC5)C3)CCC2` (stereo not given) the TGI (A549 NSCLC) was > 100 µM, the TGI (OVCAR-4 ovarian) was > 100 µM and the TGI (NCI-H522 lung) was > 100 µM. The TGI (CAKI-1 renal) was > 100 µM, the TGI (KM12 colon) was > 100 µM and the TGI (COLO 205 colon) was > 100 µM. The TGI (SNB-75 CNS) was 74.2 µM.
`CC(C)(C)C(=CS(=O)/N=C/c1ccccc1)C(C)(C)C` (stereo not given) was tested, and the TGI (A549 NSCLC) was > 100 µM, the TGI (OVCAR-4 ovarian) was 70.9 µM and the TGI (NCI-H522 lung) was 63.2 µM. The TGI (CAKI-1 renal) was > 100 µM, the TGI (KM12 colon) was > 100 µM and the TGI (COLO 205 colon) was > 100 µM. For the same compound, the TGI (SNB-75 CNS) was 63.2 µM and the TGI (SK-MEL-2 melanoma) was 34.4 µM.
